From patent US6750228B1, “Aromatic sulfone hydroxamic acid metalloprotease inhibitor” (priority 1997, dated 2004)
Where a name gives a salt, the structure may show the parent alone. Read-outs that look alike come from different tables or passages of the source.

Tests used:
Assay in all cases: biochemical
MMP-1 = molecular target: T1, MMP-1 (Homo sapiens, UniProt P03956); settings: read-out: MMP-1 IC50
T1 construct: made in house; host or cells: transfected HT-1080 cells (provided by Dr. Harold Welgus, Washington University)
T1 sequence (P03956 100-469): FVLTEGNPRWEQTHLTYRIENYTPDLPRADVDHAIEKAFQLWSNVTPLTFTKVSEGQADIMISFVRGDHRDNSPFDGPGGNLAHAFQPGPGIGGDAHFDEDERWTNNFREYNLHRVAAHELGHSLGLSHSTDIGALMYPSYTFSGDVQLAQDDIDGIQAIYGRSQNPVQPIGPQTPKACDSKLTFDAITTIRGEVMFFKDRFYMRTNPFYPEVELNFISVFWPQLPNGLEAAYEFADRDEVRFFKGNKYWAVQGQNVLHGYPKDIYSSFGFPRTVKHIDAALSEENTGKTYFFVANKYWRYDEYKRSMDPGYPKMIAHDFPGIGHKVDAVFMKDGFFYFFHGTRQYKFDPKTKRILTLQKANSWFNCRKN
Procedure, shortened: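 APMA- or trypsin-activated enzymes were preincubated with inhibitor for 5 min at room temperature, then the fluorogenic substrate MCA-Pro-Leu-Gly-Leu-Dpa-Ala-Arg-NH2 was added to a final 4 μM.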

MMP-13 = molecular target: T2, MMP-13 (Homo sapiens, UniProt P45452); settings: recombinant human MMP-13, MCA peptide substrate 4 μM, pH 7.5, room temperature; read-out: MMP-13 IC50
T2 construct: made in house; host or cells: baculovirus / insect cells
Procedure, shortened: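 Assay buffer 100 mM Tris-HCl, 100 mM NaCl, 10 mM CaCl2, pH 7.5. Activated MMP + inhibitor, 5 min RT; then methoxycoumarin peptide substrate, 4 μM final. Readout fluorescence; IC50 calculated.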

MMP-2 = molecular target: T3, MMP-2 (Homo sapiens, UniProt P08253); settings: recombinant human MMP-2, MCA peptide substrate 4 μM, pH 7.5, room temperature; read-out: MMP-2 IC50
T3 construct: made in house; provided by Dr. Gregory Goldberg, Washington University
T3 sequence (P08253 110-660): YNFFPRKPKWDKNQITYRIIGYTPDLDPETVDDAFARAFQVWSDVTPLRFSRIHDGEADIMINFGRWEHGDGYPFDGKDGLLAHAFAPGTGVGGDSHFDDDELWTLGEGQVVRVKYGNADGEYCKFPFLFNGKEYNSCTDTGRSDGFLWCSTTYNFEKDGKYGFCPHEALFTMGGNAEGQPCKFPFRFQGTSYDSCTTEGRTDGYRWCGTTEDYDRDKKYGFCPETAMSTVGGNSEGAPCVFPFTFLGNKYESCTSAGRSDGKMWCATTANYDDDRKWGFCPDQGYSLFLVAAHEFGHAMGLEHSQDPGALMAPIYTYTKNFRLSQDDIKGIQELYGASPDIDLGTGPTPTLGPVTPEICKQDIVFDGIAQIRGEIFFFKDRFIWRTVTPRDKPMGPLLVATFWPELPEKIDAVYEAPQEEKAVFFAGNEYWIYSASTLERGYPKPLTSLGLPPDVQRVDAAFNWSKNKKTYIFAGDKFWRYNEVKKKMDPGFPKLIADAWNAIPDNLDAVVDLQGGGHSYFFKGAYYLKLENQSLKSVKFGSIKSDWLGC
Procedure, shortened: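 APMA- or trypsin-activated human MMPs (MMP-1 from transfected HT-1080 cells, MMP-2 from transfected cells) preincubated with inhibitor in 1% DMSO at room temperature, then 4 μM MCA-Pro-Leu-Gly-Leu-Dpa-Ala-Arg-NH2 added in Tris/NaCl/CaCl2 buffer pH 7.5. IC50 from fluorescence reduction versus inhibitor concentration.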

[1] = recombinant human MMP-1, MCA peptide substrate 4 μM, pH 7.5, room temperature

IC50 (MMP-1; [1]) [nM]	IC50 (MMP-13) [nM]	IC50 (MMP-2) [nM]	SMILES	IC50 (MMP-1) [nM]
> 10000	0.18	0.1	Cc1ccc(N2CCC(C(=O)NO)(S(=O)(=O)c3ccc(Oc4ccc(OC(F)(F)F)cc4)cc3)CC2)cc1 [Example 229, N-Hydroxy-1-(4-methylphenyl)-4-[[4-[4-(trifluoromethoxy)phenoxy]phenyl]sulfonyl]-4-piperidinecarboxamide Monohydrochloride]	
> 10000	140	800	CC1CN(c2ccc(S(=O)(=O)C3(C(=O)NO)CCOCC3)cc2)CCN1c1ccccc1 (stereo not drawn) [Example 487]	
> 10000	0.3	0.1	CS(=O)(=O)N1CCC(C(=O)NO)(S(=O)(=O)c2ccc(Oc3ccc(OC(F)(F)F)cc3)cc2)CC1 [Example 273, N-Hydroxy-1-(methylsulfonyl)-4-[[4-[4-sulfonyl]-(trifluoromethoxy)phenoxy]phenyl]-4-piperidinecarboxamide]	
> 10000	1.5	0.9	COCCN1CCC(C(=O)NO)(S(=O)(=O)c2ccc(Oc3ccc(-n4cncn4)cc3)cc2)CC1 [Example 262, N-Hydroxy-1-(2-methoxyethyl)-4-[[4-[4-(1H-1,2,4-triazol-1-yl)phenoxy]phenyl]sulfonyl]-4-piperidinecarboxamide Trihydrochloride]	
> 10000	13	10	O=C(NO)C1(S(=O)(=O)c2ccc(N3CC[C@@H](OCc4ccc(F)cc4)C3)cc2)CCOCC1 [Example 531]	
> 10000	3	22	O=C(NO)C1(S(=O)(=O)c2ccc(N3CCC(CCOCc4ccc(F)cc4)CC3)cc2)CCOCC1 [Example 500]	
> 10000	48.4	330	O=C(NO)C1(S(=O)(=O)c2ccc(OC3CCCC(OCc4ccccc4Cl)C3)cc2)CCOCC1 (stereo not drawn) [Example 666]	
> 10000	4.5	150	O=C(NO)C1(S(=O)(=O)c2ccc(OC3CN(S(=O)(=O)Cc4ccccc4)C3)cc2)CCOCC1 [Example 850]	
> 10000	4	13.7	O=C(NO)C1(S(=O)(=O)c2ccc(N3CCC(Oc4ccc(Cl)cc4F)CC3)cc2)CCOCC1 [Example 641]	
> 10000	11.3	420	O=C(Nc1ccccc1)C1CCN(c2ccc(S(=O)(=O)C3(C(=O)NO)CCN(C4CC4)CC3)cc2)CC1 [Example 243, 1-Cyclopropyl-N-hydroxy-4-[[4-[4-[(phenylamino)carbonyl]-1-piperidinyl]phenyl]sulfonyl]-4-piperidinecarboxamide, Monohydrochloride]	
> 10000	2.1	0.4	COCCNCC(=O)N1CCC(C(=O)NO)(S(=O)(=O)c2ccc(Oc3ccc(C(F)(F)F)cc3)cc2)CC1 [Example 332]	
> 10000	7700	> 10000	O=C(NO)C1(S(=O)(=O)c2ccc(N3CCCCC3CCOCc3ccc(Cl)c(Cl)c3)cc2)CCOCC1 (stereo not drawn) [Example 513]	
> 10000	10.7	110	O=C(NO)C1(S(=O)(=O)c2ccc(N3CCC(OCc4cccc(F)c4)CC3)cc2)CCOCC1 [Example 575]	
> 10000	61	175	COc1ccccc1COC1CCC(Oc2ccc(S(=O)(=O)C3(C(=O)NO)CCOCC3)cc2)C1 (stereo not drawn) [Example 740]	
> 10000	22	14.5	O=C(NO)C1(S(=O)(=O)c2ccc(Oc3ccc(C(F)(F)F)cc3)cc2)CCN(S(=O)(=O)c2ccc(C(F)(F)F)cc2)CC1 [Example 143]	
> 10000	11.4	235	O=C(NO)C1(S(=O)(=O)c2ccc(N3CCC(OCc4cccc(Cl)c4)CC3)cc2)CCOCC1 [Example 573]	
> 10000	32.6	10.6	O=C(NO)C1(S(=O)(=O)c2ccc(N3CCC(Oc4ccc5c(c4)CCCC5)CC3)cc2)CCOCC1 [Example 483]	
> 10000	> 10000	> 10000	O=C(NO)C1(S(=O)(=O)c2ccc(N3CC4CC3CN4Cc3ccccc3)cc2)CCOCC1 (stereo not drawn) [Example 493]	
> 10000	16.9	700	COc1ccc(S(=O)(=O)N2CCCN(c3ccc(S(=O)(=O)C4(C(=O)NO)CCOCC4)cc3)CC2)cc1 [Example 698]	
> 10000	3.7	140	CC(C)OCc1ccc(COC2CCN(c3ccc(S(=O)(=O)C4(C(=O)NO)CCOCC4)cc3)CC2)cc1 [Example 554]	
8800	1.6	3.3	O=C(NO)C1(S(=O)(=O)c2ccc(N3CCC(Oc4ccc5c(c4)OCO5)CC3)cc2)CCOCC1 [Example 644]	
> 10000	0.7	0.4	CN1CCN(CC(=O)N2CCC(C(=O)NO)(S(=O)(=O)c3ccc(Oc4ccc(C(F)(F)F)cc4)cc3)CC2)CC1 [Example 324]	
> 10000	14	1100	CC(C)NC(=O)OC1CCN(c2ccc(S(=O)(=O)C3(C(=O)NO)CCOCC3)cc2)CC1 [Example 517]	

SMILES	IC50 (MMP-1; [1]) [nM]	IC50 (MMP-13) [nM]	IC50 (MMP-2) [nM]	IC50 (MMP-1) [nM]
Cn1ccnc1CN1CCC(C(=O)NO)(S(=O)(=O)c2ccc(Oc3ccc(OC(F)(F)F)cc3)cc2)CC1 [Example 386]	2100	0.4	0.2	
CC1CC(C)CN(C(=O)C2CCN(c3ccc(S(=O)(=O)C4(C(=O)NO)CCN(C(=O)CNCc5cccnc5)CC4)cc3)CC2)C1 (stereo not drawn) [Example 278]	> 10000	19.3	> 10000	
O=C(Nc1ccc(F)cc1F)N1CCC(C(=O)NO)(S(=O)(=O)c2ccc(Oc3ccc(OC(F)(F)F)cc3)cc2)CC1 [Example 363]	8800	0.4	0.2	
O=C(c1ccc(OC(F)(F)F)cc1)N1CCN(c2ccc(S(=O)(=O)C3(C(=O)NO)CCOCC3)cc2)CC1 [Example 595]	> 10000	270	425	
O=C(NO)C1(S(=O)(=O)c2ccc(N3CCC(OCc4ccc(COCC(F)(F)C(F)(F)C(F)(F)C(F)F)cc4)CC3)cc2)CCOCC1 [Example 611]	> 10000	139	1800	
O=C(c1cc(F)cc(F)c1)C1CCN(c2ccc(S(=O)(=O)C3(C(=O)NO)CCOCC3)cc2)CC1 [Example 724]	> 10000	28.6	300	
O=C(NO)C1(S(=O)(=O)c2ccc(N3CCC(SC4CCCCC4)CC3)cc2)CCOCC1 [Example 634]		4.4	60.7	> 10000
CC1CC(C)CN(C(=O)C2CCN(c3ccc(S(=O)(=O)C4(C(=O)NO)CCN(C(=O)CNCCCO)CC4)cc3)CC2)C1 (stereo not drawn) [Example 280]	> 10000	90	> 10000	
O=C(c1ccco1)N1CCC(C(=O)NO)(S(=O)(=O)c2ccc(N3CCC(OCc4ccc(F)c(C(F)(F)F)c4)CC3)cc2)CC1 [Example 433]	> 10000	450	3500	
CC(C)N1CCC(C(=O)NO)(S(=O)(=O)c2ccc(Oc3ccc(OC(F)(F)F)cc3)cc2)CC1 [Example 453]	> 10000	0.4	35	
O=C(NO)C1(S(=O)(=O)c2ccc(Oc3ccc(OC(F)(F)F)cc3)cc2)CCN(C2=NCCN2)CC1 [Example 413]	8000	1.1	0.3	
